Test results from US10689354B2, “Aminoazole derivative” (Teijin Pharma Limited, priority 2015, dated 2020).

Legend:
[1] = biological target: T1, androgen receptor (AR-LBD) (Rattus norvegicus, UniProt P15207); assay: Evaluation of androgen receptor affinity (PolarScreen Androgen Receptor Competitor Assay Kit, Red; fluorescence polarization); conditions: 22° C. for 5 hours, relative to binding rate of 1 μM DHT, read-out: AR affinity (pEC50) (converted)
T1 construct: 5 μL of 2×AR-LBD/Fluoromone AL Red Complex contained in the kit; purchased Invitrogen
T1 sequence (P15207 651-882 limits assumed): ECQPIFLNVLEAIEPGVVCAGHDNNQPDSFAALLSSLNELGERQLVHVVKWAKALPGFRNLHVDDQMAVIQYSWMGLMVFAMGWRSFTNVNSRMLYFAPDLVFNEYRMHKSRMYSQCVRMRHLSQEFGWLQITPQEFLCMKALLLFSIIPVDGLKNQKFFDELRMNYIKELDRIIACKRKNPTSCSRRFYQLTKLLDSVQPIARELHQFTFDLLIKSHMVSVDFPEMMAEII
Outline: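 Compounds were mixed with AR-LBD/Fluoromone AL Red complex and incubated 5 h at 22° C before fluorescence polarization was read. Binding was expressed relative to 1 μM dihydrotestosterone, and pEC50 (concentration giving 50% of that binding) came from a 4-parameter fit.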

[2] = biological target: T2, human androgen receptor (Homo sapiens, UniProt P10275); assay: Reporter assay of an androgen receptor responsive sequence (luciferase, transiently transfected HEK293 cells); assay type: cell-based; conditions: 24 hours incubation, relative to activity of 100 nM DHT, read-out: AR transcriptive activity (pEC50) (converted)
T2 construct: expressed in transfected cells; host or cells: HEK293
T2 sequence (P10275 1-920): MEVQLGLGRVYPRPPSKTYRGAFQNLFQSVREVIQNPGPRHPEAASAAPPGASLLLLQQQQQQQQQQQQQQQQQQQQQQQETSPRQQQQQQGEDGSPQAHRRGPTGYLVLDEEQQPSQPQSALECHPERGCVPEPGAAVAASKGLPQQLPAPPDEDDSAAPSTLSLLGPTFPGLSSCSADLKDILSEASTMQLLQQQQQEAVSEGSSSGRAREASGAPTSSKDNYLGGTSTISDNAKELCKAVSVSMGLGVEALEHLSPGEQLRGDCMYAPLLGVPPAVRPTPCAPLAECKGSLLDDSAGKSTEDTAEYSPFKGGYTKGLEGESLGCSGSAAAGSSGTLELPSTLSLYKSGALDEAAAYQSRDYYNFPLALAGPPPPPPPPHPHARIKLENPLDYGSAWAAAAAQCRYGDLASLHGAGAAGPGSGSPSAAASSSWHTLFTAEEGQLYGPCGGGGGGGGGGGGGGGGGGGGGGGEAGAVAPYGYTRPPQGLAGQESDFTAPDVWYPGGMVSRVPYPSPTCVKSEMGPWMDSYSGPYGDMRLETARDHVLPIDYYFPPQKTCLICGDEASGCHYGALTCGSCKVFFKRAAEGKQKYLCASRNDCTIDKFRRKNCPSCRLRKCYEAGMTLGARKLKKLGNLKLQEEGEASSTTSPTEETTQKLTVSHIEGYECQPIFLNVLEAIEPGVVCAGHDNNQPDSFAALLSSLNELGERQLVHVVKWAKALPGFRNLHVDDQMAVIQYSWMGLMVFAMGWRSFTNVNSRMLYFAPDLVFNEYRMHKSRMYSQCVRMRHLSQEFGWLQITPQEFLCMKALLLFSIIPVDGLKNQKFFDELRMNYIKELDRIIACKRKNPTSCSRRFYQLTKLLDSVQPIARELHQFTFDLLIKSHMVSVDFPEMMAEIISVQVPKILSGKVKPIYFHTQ
Outline: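 HEK293 cells transiently transfected for 3 h with ARE-firefly luciferase, full-length human AR and TK-Renilla plasmids, then exposed to compound for 24 h at 37 °C in 5% charcoal-treated FBS/DMEM. Dual-Glo luminescence read; pEC50 from 4-parameter fit relative to 100 nM DHT.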

| EC50 [1] [nM] | EC50 [2] [nM] | SMILES |
| --- | --- | --- |
| 63.1 | 631 | Cc1nc(CN(CCc2ccc(Cl)cc2)c2nc(C(=O)NS(C)(=O)=O)c(C)s2)cs1 [Compound 504, 2-[2-(4-chlorophenyl)ethyl-[(2-methylthiazol-4-yl)methyl]amino]-5-methyl-N-methylsulfonyl-thiazole-4-carboxamide] |
| 39.8 | 2000 | COc1cccc(CN(CCc2ccc(OC(F)(F)F)cc2)c2nc(C(=O)NS(C)(=O)=O)c(C)s2)n1 [Compound 505, 2-[(6-methoxy-2-pyridyl)methyl-[2-[4-(trifluoromethoxy)phenyl]ethyl]amino]-5-methyl-N-methylsulfonyl-thiazole-4-carboxamide] |
| 25.1 | > 10000 | Cc1sc(N(CCc2ccc(OC(F)(F)F)cc2)Cc2ccc(C#N)cc2)nc1C(=O)NS(C)(=O)=O [Compound 506, 2-[(4-cyanophenyl)methyl-[2-[4-(trifluoromethoxy)phenyl]ethyl]amino]-5-methyl-N-methylsulfonyl-thiazole-4-carboxamide] |
| 39.8 | 501 | Cc1nc(CN(CCc2ccc(OC(F)(F)F)cc2)c2nc(C(=O)NS(C)(=O)=O)c(C)s2)cs1 [Compound 507, 5-methyl-N-methylsulfonyl-2-[(2-methylthiazol-4-yl)methyl-[2-[4-(trifluoromethoxy)phenyl]ethyl]amino]thiazole-4-carboxamide] |
| 316 | 5010 | Cc1cc(CN(CCc2ccc(Cl)cc2)c2nc(C(=O)NS(C)(=O)=O)c(C)s2)no1 [Compound 508, 2-[2-(4-chlorophenyl)ethyl-[(5-methylisoxazol-3-yl)methyl]amino]-5-methyl-N-methylsulfonyl-thiazole-4-carboxamide] |
| 200 | > 10000 | Cc1cc(CN(CCc2ccc(OC(F)(F)F)cc2)c2nc(C(=O)NS(C)(=O)=O)c(C)s2)no1 [Compound 509, 5-methyl-2-[(5-methylisoxazol-3-yl)methyl-[2-[4-(trifluoromethoxy)phenyl]ethyl]amino]-N-methylsulfonyl-thiazole-4-carboxamide] |
| 126 | 1260 | Cc1sc(N(CC2COc3ccccc3C2)c2ccc(C#N)cc2)nc1C(=O)NS(C)(=O)=O (stereo not shown) [Compound 510, 2-[N-(chroman-3-ylmethyl)-4-cyano-anilino]-5-methyl-N-methylsulfonyl-thiazole-4-carboxamide] |
| 158 | 316 | Cc1sc(N(Cc2ccc(OC(F)F)cn2)c2ccc(C#N)cc2)nc1C(=O)NS(C)(=O)=O [Compound 511, 2-[4-cyano-N-[[5-(difluoromethoxy)-2-pyridyl]methyl]anilino]-5-methyl-N-methylsulfonyl-thiazole-4-carboxamide] |
| 100 | 1260 | Cc1sc(N(CCc2ccc(OC(F)(F)F)cc2)Cc2ccc(Cl)cn2)nc1C(=O)NS(C)(=O)=O [Compound 512, 2-[(5-chloro-2-pyridyl)methyl-[2-[4-(trifluoromethoxy)phenyl]ethyl]amino]-5-methyl-N-methylsulfonyl-thiazole-4-carboxamide] |
| 200 | 1580 | Cc1nc(CN(CCc2ccc(OC(F)F)cc2)c2nc(C(=O)NS(C)(=O)=O)c(C)s2)cs1 [Compound 513, 2-[2-[4-(difluoromethoxy)phenyl]ethyl-[(2-methylthiazol-4-yl)methyl]amino]-5-methyl-N-methylsulfonyl-thiazole-4-carboxamide] |
| 126 | 158 | Cc1sc(N(Cc2ccc(C(F)(F)F)cn2)c2ccc(C#N)cc2)nc1C(=O)NS(C)(=O)=O [Compound 514, 2-[4-cyano-N-[[5-(trifluoromethyl)-2-pyridyl]methyl]anilino]-5-methyl-N-methylsulfonyl-thiazole-4-carboxamide] |
| 794 | 501 | COc1ccc(CN(c2ccc(C#N)cc2)c2nc(C(=O)NS(C)(=O)=O)c(C)s2)nc1 [Compound 515, 2-[4-cyano-N-[(5-methoxy-2-pyridyl)methyl]anilino]-5-methyl-N-methylsulfonyl-thiazole-4-carboxamide] |
| > 2000 | 6310 | COc1ccc(CN(c2ccc(C#N)cc2)c2nc(C(=O)NS(C)(=O)=O)c(C)s2)nn1 [Compound 516, 2-[4-cyano-N-[(6-methoxypyridazin-3-yl)methyl]anilino]-5-methyl-N-methylsulfonyl-thiazole-4-carboxamide] |
| 316 | 631 | Cc1sc(N(Cc2ccc(F)cn2)c2ccc(C#N)cc2)nc1C(=O)NS(C)(=O)=O [Compound 517, 2-[4-cyano-N-[(5-fluoro-2-pyridyl)methyl]anilino]-5-methyl-N-methylsulfonyl-thiazole-4-carboxamide] |
| 25.1 | 39.8 | Cc1sc(N(Cc2cc(F)cc(OC(F)F)c2)c2ccc(C#N)cc2)nc1C(=O)NS(C)(=O)=O [Compound 518, 2-[4-cyano-N-[[3-(difluoromethoxy)-5-fluoro-phenyl]methyl]anilino]-5-methyl-N-methylsulfonyl-thiazole-4-carboxamide] |
| 25.1 | 158 | COCCCS(=O)(=O)NC(=O)c1nc(N(Cc2cc(F)cc(OC(F)F)c2)c2ccc(C#N)cc2)sc1C [Compound 519, 2-[4-cyano-N-[[3-(difluoromethoxy)-5-fluoro-phenyl]methyl]anilino]-N-(3-methoxypropylsulfonyl)-5-methyl-thiazole-4-carboxamide] |
| 25.1 | 316 | Cc1sc(N(Cc2cc(OC(F)F)ccc2F)c2ccc(C#N)cc2)nc1C(=O)NS(C)(=O)=O [Compound 520, 2-[4-cyano-N-[[5-(difluoromethoxy)-2-fluoro-phenyl]methyl]anilino]-5-methyl-N-methylsulfonyl-thiazole-4-carboxamide] |
| 31.6 | 1260 | COCCCS(=O)(=O)NC(=O)c1nc(N(Cc2cc(OC(F)F)ccc2F)c2ccc(C#N)cc2)sc1C [Compound 521, 2-[4-cyano-N-[[5-(difluoromethoxy)-2-fluoro-phenyl]methyl]anilino]-N-(3-methoxypropylsulfonyl)-5-methyl-thiazole-4-carboxamide] |
| 25.1 | 251 | Cc1sc(N(Cc2ccc(OC(F)F)cc2F)c2ccc(C#N)cc2)nc1C(=O)NS(C)(=O)=O [Compound 522, 2-[4-cyano-N-[[4-(difluoromethoxy)-2-fluoro-phenyl]methyl]anilino]-5-methyl-N-methylsulfonyl-thiazole-4-carboxamide] |
| 31.6 | 398 | COCCCS(=O)(=O)NC(=O)c1nc(N(Cc2ccc(OC(F)F)cc2F)c2ccc(C#N)cc2)sc1C [Compound 523, 2-[4-cyano-N-[[4-(difluoromethoxy)-2-fluoro-phenyl]methyl]anilino]-N-(3-methoxypropylsulfonyl)-5-methyl-thiazole-4-carboxamide] |
| 39.8 | 501 | Cc1sc(N(Cc2ccc(OC(F)F)nc2)c2ccc(C#N)cc2)nc1C(=O)NS(C)(=O)=O [Compound 524, 2-[4-cyano-N-[[6-(difluoromethoxy)-3-pyridyl]methyl]anilino]-5-methyl-N-methylsulfonyl-thiazole-4-carboxamide] |
| 50.1 | 631 | COCCCS(=O)(=O)NC(=O)c1nc(N(Cc2ccc(OC(F)F)nc2)c2ccc(C#N)cc2)sc1C [Compound 525, 2-[4-cyano-N-[[6-(difluoromethoxy)-3-pyridyl]methyl]anilino]-N-(3-methoxypropylsulfonyl)-5-methyl-thiazole-4-carboxamide] |
| 39.8 | 100 | COCCCS(=O)(=O)NC(=O)c1nc(N(Cc2ccc(OC(F)F)c(F)c2)c2ccc(C#N)cc2)sc1C [Compound 526, 2-[4-cyano-N-[[4-(difluoromethoxy)-3-fluoro-phenyl]methyl]anilino]-N-(3-methoxypropylsulfonyl)-5-methyl-thiazole-4-carboxamide] |
